Test results from PubChem BioAssay AID1963965 (Molecular Pharmacology Branch, DTP, NCI, 2024).
Where “and” joins values, the source holds several entries; their conditions need not be identical. Equal entries are not always repeated.

Tested on: 996289-038-R-J1-PDC spheroid viability
Experiment: Anticancer human tumor 996289-038-R-J1-PDC patient-derived colon adenocarcinoma cell line growth inhibition [PI3K]
Details: spheroids with HUVEC and MSC; for viability, T/C: stronger effect = lower value
How it was run: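 Agents were dosed from a top concentration near clinical Cmax (otherwise 10 microM) in half-log decrements, alone or combined with PI3K inhibitors. The spheroids contain tumor cells plus endothelial (HUVEC) and MSC stroma; viability is measured.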

[1] = curve of first compound, second compound 0.0316 µM
[2] = curve of first compound, second compound 0.1 µM
[3] = curve of first compound, second compound 0.316 µM
[4] = curve of first compound, second compound 1 µM
[5] = second compound 0.0316 µM, first compound 0.0316 µM
[6] = second compound 0.0316 µM, first compound 0.1 µM
[7] = second compound 0.0316 µM, first compound 0.316 µM
[8] = second compound 0.0316 µM, first compound 1 µM
[9] = second compound 0.1 µM, first compound 0.0316 µM
[10] = second compound 0.1 µM, first compound 0.1 µM
[11] = second compound 0.1 µM, first compound 0.316 µM
[12] = second compound 0.1 µM, first compound 1 µM
[13] = second compound 0.316 µM, first compound 0.0316 µM
[14] = second compound 0.316 µM, first compound 0.1 µM
[15] = second compound 0.316 µM, first compound 0.316 µM
[16] = second compound 0.316 µM, first compound 1 µM
[17] = second compound 1 µM, first compound 0.0316 µM
[18] = second compound 1 µM, first compound 0.1 µM
[19] = second compound 1 µM, first compound 0.316 µM
[20] = second compound 1 µM, first compound 1 µM
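Note: spheroids exposed to compounds for seven days before viability read.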
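Throughout, for viability, T/C: luminescence used as a proxy for viable cell amount; percent viability relative to DMSO vehicle control as 100%.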

Question: For `CCN1CCN(Cc2ccc(Nc3ncc(F)c(-c4cc(F)c5nc(C)n(C(C)C)c5c4)n3)nc2)CC1` + CC(Nc1ncnc2nc[nH]c12)c1cc2cccc(Cl)c2c(=O)n1-c1ccccc1, which IC50 [1] is on record?
Answer: Its IC50 is > 1000 nM.

Question: What about the IC50 [2] of the same molecule?
Answer: Its IC50 is > 1000 nM.

Question: What about the IC50 [3] of the same molecule?
Answer: Its IC50 is > 1000 nM.

Question: And the IC50 [4]?
Answer: The IC50 was > 1000 nM.

Question: And the IC50 (curve of first compound, second compound 3.16 µM)?
Answer: Its IC50 is > 1000 nM.

Question: What about the IC50 (curve of first compound, second compound 10 µM) of the same molecule?
Answer: The IC50 was > 1000 nM.

Question: What about the viability, T/C (second compound 0.0316 µM, first compound 0.00316 µM) of the same molecule?
Answer: The viability, T/C was 111%.

Question: And the viability, T/C (second compound 0.0316 µM, first compound 0.01 µM)?
Answer: Its viability, T/C is 94.2%.

Question: What about the viability, T/C [5] of the same molecule?
Answer: The viability, T/C was 92.2%.

Question: And the viability, T/C [6]?
Answer: Its viability, T/C is 87.1%.

Question: And the viability, T/C [7]?
Answer: The viability, T/C was 79%.

Question: What about the viability, T/C [8] of the same molecule?
Answer: The viability, T/C was 74.1%.

Question: What about the viability, T/C (second compound 0.1 µM, first compound 0.00316 µM) of the same molecule?
Answer: The viability, T/C was 102%.

Question: What about the viability, T/C (second compound 0.1 µM, first compound 0.01 µM) of the same molecule?
Answer: Its viability, T/C is 96.4%.

Question: What about the viability, T/C [9] of the same molecule?
Answer: The viability, T/C was 91.8%.

Question: And the viability, T/C [10]?
Answer: The viability, T/C was 86.7%.

Question: What about the viability, T/C [11] of the same molecule?
Answer: Its viability, T/C is 76.7%.

Question: And the viability, T/C [12]?
Answer: Its viability, T/C is 80%.

Question: And the viability, T/C (second compound 0.316 µM, first compound 0.00316 µM)?
Answer: Its viability, T/C is 96.2%.

Question: What about the viability, T/C (second compound 0.316 µM, first compound 0.01 µM) of the same molecule?
Answer: Its viability, T/C is 93.7%.

Question: And the viability, T/C [13]?
Answer: Its viability, T/C is 89.1%.

Question: What about the viability, T/C [14] of the same molecule?
Answer: Its viability, T/C is 80.3%.

Question: What about the viability, T/C [15] of the same molecule?
Answer: Its viability, T/C is 75%.

Question: What about the viability, T/C [16] of the same molecule?
Answer: The viability, T/C was 80.4%.

Question: What about the viability, T/C (second compound 1 µM, first compound 0.00316 µM) of the same molecule?
Answer: Its viability, T/C is 104%.

Question: What about the viability, T/C (second compound 1 µM, first compound 0.01 µM) of the same molecule?
Answer: The viability, T/C was 88.5%.

Question: And the viability, T/C [17]?
Answer: Its viability, T/C is 86%.

Question: What about the viability, T/C [18] of the same molecule?
Answer: Its viability, T/C is 79.8%.

Question: What about the viability, T/C [19] of the same molecule?
Answer: Its viability, T/C is 76.8%.

Question: What about the viability, T/C [20] of the same molecule?
Answer: The viability, T/C was 70.7%.

Question: What about the viability, T/C (second compound 3.16 µM, first compound 0.00316 µM) of the same molecule?
Answer: The viability, T/C was 98.1%.

Question: And the viability, T/C (second compound 3.16 µM, first compound 0.01 µM)?
Answer: The viability, T/C was 105%.

Question: And the viability, T/C (second compound 3.16 µM, first compound 0.0316 µM)?
Answer: Its viability, T/C is 79.4%.

Question: And the viability, T/C (second compound 3.16 µM, first compound 0.1 µM)?
Answer: Its viability, T/C is 86.6%.

Question: What about the viability, T/C (second compound 3.16 µM, first compound 0.316 µM) of the same molecule?
Answer: The viability, T/C was 81%.

Question: What about the viability, T/C (second compound 3.16 µM, first compound 1 µM) of the same molecule?
Answer: The viability, T/C was 68.8%.

Question: And the viability, T/C (second compound 10 µM, first compound 0.00316 µM)?
Answer: Its viability, T/C is 82%.

Question: What about the viability, T/C (second compound 10 µM, first compound 0.01 µM) of the same molecule?
Answer: The viability, T/C was 76%.

Question: And the viability, T/C (second compound 10 µM, first compound 0.0316 µM)?
Answer: The viability, T/C was 82.4%.

Question: And the viability, T/C (second compound 10 µM, first compound 0.1 µM)?
Answer: The viability, T/C was 74.3%.

Question: And the viability, T/C (second compound 10 µM, first compound 0.316 µM)?
Answer: The viability, T/C was 71%.

Question: What about the viability, T/C (second compound 10 µM, first compound 1 µM) of the same molecule?
Answer: The viability, T/C was 58.6%.

Question: What does the source list for `CC(C)NCC(C(=O)N1CCN(c2ncnc3c2C(C)CC3O)CC1)c1ccc(Cl)cc1` (stereo not drawn)?
Answer: viability, T/C (compound 0.0316 µM): 106% [middle of 4 runs]; viability, T/C (compound 0.1 µM): 86.8% [middle of 4 runs]; viability, T/C (compound 0.316 µM): 99.8% [middle of 4 runs]; viability, T/C (compound 1 µM): 94.2% [middle of 4 runs]; viability, T/C (compound 3.16 µM): 88% [middle of 4 runs]; viability, T/C (compound 10 µM): 78.7% [middle of 4 runs]; IC50 (curve of compound): > 10000 nM

Question: What does the source list for `Cn1nccc1Nc1nccc(-c2ccn(C(CO)c3ccc(Cl)c(F)c3)c(=O)c2)n1` (stereo not drawn) + COc1c(OCCCN2CCOCC2)ccc2c3n(c(=NC(=O)c4cnc(N)nc4)nc12)CCN3?
Answer: IC50 (curve of first compound, second compound 0.00316 µM): > 10000 nM; IC50 (curve of first compound, second compound 0.01 µM): > 10000 nM; IC50 [1]: 5910 nM; IC50 [2]: 2560 nM; IC50 [3]: < 31.6 nM; IC50 [4]: < 31.6 nM; viability, T/C (second compound 0.00316 µM, first compound 0.0316 µM): 94.8%; viability, T/C (second compound 0.00316 µM, first compound 0.1 µM): 82.6%; viability, T/C (second compound 0.00316 µM, first compound 0.316 µM): 104%; viability, T/C (second compound 0.00316 µM, first compound 1 µM): 83.6%; viability, T/C (second compound 0.00316 µM, first compound 3.16 µM): 86.4%; viability, T/C (second compound 0.00316 µM, first compound 10 µM): 55.6%; viability, T/C (second compound 0.01 µM, first compound 0.0316 µM): 95.6%; viability, T/C (second compound 0.01 µM, first compound 0.1 µM): 87.5%; viability, T/C (second compound 0.01 µM, first compound 0.316 µM): 91.2%; viability, T/C (second compound 0.01 µM, first compound 1 µM): 93.6%; viability, T/C (second compound 0.01 µM, first compound 3.16 µM): 73.3%; viability, T/C (second compound 0.01 µM, first compound 10 µM): 56.3%; viability, T/C [5]: 100%; viability, T/C [6]: 80.1%; viability, T/C [7]: 80%; viability, T/C [8]: 76%; viability, T/C (second compound 0.0316 µM, first compound 3.16 µM): 58%; viability, T/C (second compound 0.0316 µM, first compound 10 µM): 41.2%; viability, T/C [9]: 69.5%; viability, T/C [10]: 62.8%; viability, T/C [11]: 64.3%; viability, T/C [12]: 54%; viability, T/C (second compound 0.1 µM, first compound 3.16 µM): 51.9%; viability, T/C (second compound 0.1 µM, first compound 10 µM): 22.4%; viability, T/C [13]: 44.9%; viability, T/C [14]: 34.7%; viability, T/C [15]: 35%; viability, T/C [16]: 36.4%; viability, T/C (second compound 0.316 µM, first compound 3.16 µM): 27.9%; viability, T/C (second compound 0.316 µM, first compound 10 µM): 18.5%; viability, T/C [17]: 18.8%; viability, T/C [18]: 20.6%; viability, T/C [19]: 24%; viability, T/C [20]: 17.7%; viability, T/C (second compound 1 µM, first compound 3.16 µM): 15%; viability, T/C (second compound 1 µM, first compound 10 µM): 9.77%

Question: What does the source list for `CC(Cn1ccc(-c2ccc(C#N)c(Cl)c2)n1)NC(=O)c1cc(C(C)O)[nH]n1` (stereo not drawn)?
Answer: viability, T/C (compound 0.0316 µM): 98.8% [middle of 4 runs]; viability, T/C (compound 0.1 µM): 104% (2×) and 86.4% and 92.5%; viability, T/C (compound 0.316 µM): 86.8% and 108% (2×) and 113%; viability, T/C (compound 1 µM): 108% [middle of 4 runs]; viability, T/C (compound 3.16 µM): 97.8% [middle of 4 runs]; viability, T/C (compound 10 µM): 101% [middle of 4 runs]; IC50 (curve of compound): > 10000 nM
